Values after ≈ are worked out from the molar mass of the structure shown. One block for each molecule: values may come before it. Residues, ends and D or L forms follow the SMILES beside them. *: point of attachment. X1 = CC[C@@]1(OCCS*)C(=O)OCc2c1cc1n(c2=O)Cc2cc3ccccc3nc2-1
How the values were obtained:
[1] = Antiproliferative activity against human HCT116-G7 cells assessed as reduction in cell viability measured after 72 hrs by MTT assay; format: functional, cell-based; conditions: HCT116-G7, 72 h
[2] = Antiproliferative activity against human HCT116-SN6 cells assessed as reduction in cell viability measured after 72 hrs by MTT assay; format: functional, cell-based; conditions: HCT116-SN6, 72 h
HCT-116 [3] = test: Antiproliferative activity against human HCT-116 cells assessed as reduction in cell viability measured after 72 hrs by MTT assay; format: functional, cell-based; conditions: HCT-116, 72 h
HCT-116 [4] = test: cells; conditions: Homo sapiens, HCT-116, 72 h
Description: Cytotoxicity against human HCT-116 cells assessed as reduction in cell growth incubated for 72 hrs by MTT assay

HeLa = test: cells; conditions: Homo sapiens, 72 h
Description: Cytotoxicity against human HeLa cells assessed as reduction in cell growth incubated for 72 hrs by MTT assay

A549 [5] = test: cells; conditions: Homo sapiens, A549, 72 h
Description: Cytotoxicity against human A549 cells assessed as reduction in cell growth incubated for 72 hrs by MTT assay

A549 [6] = test: Antiproliferative activity against human A549 cells assessed as reduction in cell viability measured after 72 hrs by MTT assay; format: functional, cell-based; conditions: A549, 72 h
HepG2 = test: Cytotoxicity against human HepG2 cells assessed as reduction in cell growth incubated for 72 hrs by MTT assay; format: functional, cell-based; conditions: HepG2, 72 h
[7] = Ratio AUC in mouse tumor to plasma; format: ADME, cell-free; conditions: tumor and plasma, read-out: Ratio AUC
[8] = Antiproliferative activity against human NLF cells expressing ABCG2 assessed as reduction in cell viability measured for 72 hrs by MTT assay; format: functional, cell-based
[9] = Antiproliferative activity against human SK-N-BE(2)-C cells expressing ABCG2 assessed as reduction in cell viability measured for 72 hrs by MTT assay; format: functional, cell-based
Neutrophil elastase [10] = biological target: T1, Neutrophil elastase (Homo sapiens, UniProt P08246); test: Inhibition of human Neutrophil elastase
T1 sequence (P08246 whole entry): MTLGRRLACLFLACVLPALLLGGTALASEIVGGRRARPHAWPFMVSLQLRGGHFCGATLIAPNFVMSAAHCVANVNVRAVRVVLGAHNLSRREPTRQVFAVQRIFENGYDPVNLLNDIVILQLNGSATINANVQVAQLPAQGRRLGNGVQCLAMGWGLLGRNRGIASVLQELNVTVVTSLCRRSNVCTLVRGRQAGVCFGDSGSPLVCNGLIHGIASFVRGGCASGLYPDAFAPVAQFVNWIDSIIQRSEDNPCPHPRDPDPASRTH

[11] = Drug recovery in bile duct cannulated rat bile measured for 48 hrs
Neutrophil elastase [12] = biological target: T2, Neutrophil elastase (Mus musculus, UniProt Q3UP87); test: Inhibition of mouse Neutrophil elastase
T2 sequence (Q3UP87 whole entry): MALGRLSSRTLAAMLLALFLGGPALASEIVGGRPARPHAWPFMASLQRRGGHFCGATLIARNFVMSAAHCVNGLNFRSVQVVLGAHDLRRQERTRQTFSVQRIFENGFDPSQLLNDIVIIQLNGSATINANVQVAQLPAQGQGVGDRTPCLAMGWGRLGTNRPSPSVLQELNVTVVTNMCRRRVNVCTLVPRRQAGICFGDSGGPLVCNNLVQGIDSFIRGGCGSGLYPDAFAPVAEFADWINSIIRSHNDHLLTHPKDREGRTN

[13] = Drug recovery in bile duct cannulated rat urine measured for 48 hrs
[14] = Aqueous solubility of compound at pH6.5; format: physicochemical; conditions: pH 6.5
HCT-116 [15] = test: Antitumor activity against human HCT-116 cells xenografted in mouse assessed as tumor growth inhibition at 5 mg/kg administered once for every 2 days for 2 weeks relative to control; format: functional; parameters: scale not given: the % may be the effect or the level left; conditions: time 2 day
[16] = Stability in human plasma assessed as half life measured upto 24 hrs by UV/LC-MS analysis; format: ADME, cell-free

SMILES: CC[C@@]1(O)C(=O)OCc2c1cc1n(c2=O)Cc2cc3cc4c(cc3nc2-1)OCO4
EC50 [1]: 4.14 nM
EC50 [2]: 2.28 nM
EC50 (HCT-116 [3]): 0.36 nM
IC50 (HCT-116 [4]): 0.05 µg/mL (≈ 0.127 µM)
IC50 (HeLa): 0.04 µg/mL (≈ 0.102 µM)
IC50 (A549 [5]): 0.043 µg/mL (≈ 0.11 µM)
EC50 (A549 [6]): 0.86 nM
IC50 (HepG2): 0.104 µg/mL (≈ 0.265 µM)

SMILES: CC[C@@]1(O)C(=O)OCc2c1cc1n(c2=O)Cc2cc3ccc(O)cc3nc2-1
Kp [7]: 6.1

SMILES: CCc1c2c(nc3ccccc13)-c1cc3c(c(=O)n1C2)COC(=O)[C@]3(O)CC
IC50 [8]: 80 nM
IC50 [9]: 7 nM

SMILES: CCCNC(=O)Nc1cccc(S(=O)(=O)Nc2cccc([C@@H](CC(=O)[O-])NC(=O)Nc3ccc(NC(=O)NCCOCCOCCOCCC(=O)N[C@@H](CC(=O)[O-])C(=O)N4CCC[C@H]4C(=O)N[C@H](C(=O)O[C@]4(CC)C(=O)OCc5c4cc4n(c5=O)Cc5c-4nc4ccccc4c5CC)C(C)C)cc3)c2)c1.[Na+].[Na+]
IC50 (Neutrophil elastase [10]): 9.6 µM
dose excreted at 48 h [11]: 108%
IC50 (Neutrophil elastase [12]): 8.9 µM
dose excreted at 48 h [13]: 2.4%

solubility [14]: 1.83 µM (≈ 4.81 µg/mL)
half-life [16]: 150 min
SMILES: CC[C@H](C)[C@H](NC(=O)[C@H](CCCCN)NC(=O)[C@H](CCCCN)NC(=O)[C@H](C)NC(=O)[C@H](CC(C)C)NC(=O)[C@H](C)NC(=O)[C@H](C)NC(=O)[C@H](CC(C)C)NC(=O)[C@@H](NC(=O)[C@H](CCCCN)NC(=O)[C@H](CC(C)C)NC(=O)[C@H](CC(N)=O)NC(=O)[C@H](CCCCN)NC(=O)[C@H](CCCCN)NC(=O)[C@H](CC(C)C)NC(=O)[C@H](CC(C)C)NC(=O)[C@@H](N)CCCCN)C(C)C)C(=O)N[C@@H](CC(C)C)C(=O)NCC(=O)NCC(=O)N[C@@H](CSSCCO[C@]1(CC)C(=O)OCc2c1cc1n(c2=O)Cc2cc3ccccc3nc2-1)C(N)=O (H-KLLKKNLKVLAALAKKILGGC(X1)-NH2)
Activity (HCT-116 [15]): 98.2%
